Here are results for 13 compounds from PMC8958505, “Discovery of Potential Neuroprotective Agents against Paclitaxel-Induced Peripheral Neuropathy” (Journal of Medicinal Chemistry, 2022).

Test [1] has as its system primary cortical neurons. The test is described as follows: Synaptogenesis assay of primary cortical neurons (image-based HCS) against paclitaxel-induced neurotoxicity. It counts as cell-based, mouse. As to conditions: for activity at 0.01 µM / activity at 1 µM: Mus musculus, Primary cortical neuron; for activity at 0.01 µM: read-out: A: Synaptogenesis (% of control) of test compound (10 nM) + paclitaxel (1 μM); for activity at 1 µM: read-out: B: Synaptogenesis (% of control) of test compound (1000 nM) + paclitaxel (1 μM). An excerpt:
(§1) Herein, we wish to report that an in vitro neurite outgrowth assay of cortical neurons integrated with an image-based high-content screening (HCS) platform is used to evaluate a commercially available library of 78 minoxidil-related derivatives,[22] leading to the identification of a series of analogues able to prevent or alleviate paclitaxel-induced neurotoxicity. The project began with screening compounds with the primary culture of cortical neurons from neonatal mice. More specifically, cerebral cortex neurons cultured from P0 C57BL/6J mouse pups were incubated with a test compound (10 and 1000 nM) prior to paclitaxel (1 μM) treatment. Subsequently, both neurite outgrowth and synaptogenesis were measured to evaluate the test compounds’ neuroprotective capacity. […] This unique feature is preserved for the core-structure screening of our in-house library in the following subject. Moreover, the substituent at the C4 position appears flexible in terms of structural diversity. Collectively, CSV0A024807, the only one displaying the best neuroprotective potency on both neurite outgrowth and synaptogenesis assays, was thus elected as a potential hit compound for further development.
(§2) Primary cortical or DRG cells were fixed with 4% paraformaldehyde for 15 min following compound and paclitaxel treatment. After washing with PBS, the fixed cells were permeabilized with PBS containing 0.05% Triton X-100 for 20 min and then blocked with commercial blocking buffer (#GTX30963; GeneTex, USA) at room temperature for 1 h. Subsequently, the cortical cells were stained for the extending processes and synaptic puncta by using anti-MAP2 (#MBS502140, 1:500; Mybiosource, USA) and anti-synaptophysin (#ab32127, 1:500; Abcam, UK) overnight. DRG cells were stained for the neurite and neuron nucleus by using anti-β III tubulin (#D71G9, 1:600; Cell Signaling, USA) and anti-NeuN monoclonal antibody (#MAB377, 1:400; Millipore, USA) overnight. On the second day, the samples were washed for 30 min with wash buffer and incubated with secondary antibodies (Alexa-488, 647 1:600; Thermo Fisher, USA) and 4 μg/mL Hoechst 33258 (#94403-1ML, 1:100; Merck, USA) at room temperature for 1 h. In the initial experiments of screening the potential neuroprotective compound for CIPN, ImageXpress^Micro (IXM) high-content imaging system (Molecular Devices, USA) driven by MetaXpress software was used. Images of treated cells were automatically acquired by using a 10× objective. Twenty-one images per well were taken in each of three channels (DAPI, FITC, and Cy5) to create a whole view of the entire neural network. The integrity of the neural network was evaluated using TIF images by importing them into MetaXpress software for analysis using the module for multiparameter, such as Neurite Outgrowth, Cell Scoring, and Transfluor. Furthermore, the score of synaptogenesis was analyzed in AcuityXpress software (Molecular Devices, USA).

The subject of test [2] is primary cortical neurons. The test is described as follows: Neurite outgrowth assay of primary cortical neurons (image-based HCS) against paclitaxel-induced neurotoxicity. Type of test: cell-based, mouse. The following applies: for activity at 0.01 µM / activity at 1 µM: Mus musculus, Primary cortical neuron; for activity at 0.01 µM: read-out: C: Neurite outgrowth (% of control) of test compound (10 nM) + paclitaxel (1 μM); for activity at 1 µM: read-out: D: Neurite outgrowth (% of control) of test compound (1000 nM) + paclitaxel (1 μM).
Text: as §1, §2

[3] abbreviates: test compound 10 nM + paclitaxel 1 μM, mean ± SE.
Where [4] appears, read: test compound 1000 nM + paclitaxel 1 μM, mean ± SE.

As for `Oc1cccc(/C=N/Nc2cc(N3CCCCC3)nc(N3CCCCC3)n2)c1` [CSV0B001120], the activity at 0.01 µM stood at 43 ± 5% in test [1] (setting [3]) and 95 ± 9% in test [2] (setting [3]). In addition, the activity at 1 µM in test [1] (setting [4]) amounted to 41 ± 5%; in test [2] (setting [4]), 82 ± 2%.
The like results for `Cc1ccccc1C(=O)NNc1cc(N2CCOCC2)nc(N2CCOCC2)n1` [CSV0A062712] were, in that order, 52 ± 7%, 67 ± 10%, 51 ± 2% and 63 ± 6%.
The like results for `O=[N+]([O-])c1ccc(/C=N/Nc2cc(N3CCCCC3)nc(N3CCCCC3)n2)cc1` [CSV0A011998] were, in that order, 75 ± 1%, 77 ± 5%, 55 ± 2% and 61 ± 6%.
As for `CCN(CC)c1ccc(/C=N/Nc2cc(N3CCOCC3)nc(N3CCOCC3)n2)cc1` [CSV0A024804], the activity at 0.01 µM was 67 ± 8% in test [1] (setting [3]) and 68 ± 2% in test [2] (setting [3]). For the same compound, the activity at 1 µM in test [1] (setting [4]) is 62 ± 3%; in test [2] (setting [4]), 66 ± 1%.
The like results for `C(=N\Nc1cc(N2CCCCCC2)nc(N2CCCCCC2)n1)/c1ccncc1` [CSV0A061667] were, in that order, 40 ± 6%, 82 ± 6%, 41 ± 7% and 82 ± 6%.
Regarding `CN(C)c1cc(N/N=C/c2ccccc2O)nc(N(C)C)n1` [CSV0A034003], the “A: Synaptogenesis (% of control) of test compound (10 nM) + paclitaxel (1 μM)” value in test [1] (setting [3]) is 67±5 % of control. The “B: Synaptogenesis (% of control) of test compound (1000 nM) + paclitaxel (1 μM)” value in test [1] (setting [4]) is 66±9 % of control. Besides, in test [2] (setting [3]), the “C: Neurite outgrowth (% of control) of test compound (10 nM) + paclitaxel (1 μM)” value is given as 61±3 % of control. In addition, the “D: Neurite outgrowth (% of control) of test compound (1000 nM) + paclitaxel (1 μM)” value in test [2] (setting [4]) is 62±3 % of control.
Turning to `COc1ccc(/C=N/Nc2cc(N3CCCC3)nc(N3CCCC3)n2)cc1` [CSV0A024813], the values for the activity at 0.01 µM in test [1] (setting [3]) and in test [2] (setting [3]) were 98 ± 4% and 66 ± 2%, respectively. Besides, the figures for the activity at 1 µM in test [1] (setting [4]) and in test [2] (setting [4]) were 81 ± 5% and 63 ± 2%, respectively. Besides, the “attenuation of synaptogenesis inhibited by paclitaxel (in words)” value in test [1] (test compound 10 and 1000 nM prior to paclitaxel 1 μM, Figure 1A) is “significantly attenuated”.
For `CN(C)c1cc(NNC(=O)c2ccccc2O)nc(N(C)C)n1` [CSV0A2327S0], the activity at 0.01 µM worked out at 42 ± 2% in test [1] (setting [3]) and 55 ± 1% in test [2] (setting [3]). For the same compound, the activity at 1 µM in test [1] (setting [4]) came out at 41 ± 5%; in test [2] (setting [4]), 53 ± 5%.
On to `Oc1ccccc1/C=N/Nc1cc(N2CCOCC2)nc(N2CCOCC2)n1` [CSV0B002764], for which the values for the activity at 0.01 µM in test [1] (setting [3]) and in test [2] (setting [3]) were 48 ± 5% and 66 ± 6%, respectively. The activity at 1 µM in test [1] (setting [4]) amounted to 47 ± 3%; in test [2] (setting [4]), 67 ± 4%.
For the compound `O=C(CCc1ccccc1)NNc1cc(N2CCOCC2)nc(N2CCOCC2)n1` [CSV0C009114], the activity at 0.01 µM in test [1] amounted to 48 ± 5%; in test [2], 70 ± 7%. Also, the activity at 1 µM in test [1] was determined as 49 ± 3%; in test [2], 65 ± 3%.
The matching figures for `CN(C)c1cc(N/N=C/c2ccccc2)nc(N(C)C)n1` [CSV0A047582]: 73 ± 3%, 69 ± 3%, 77 ± 9% and 67 ± 3%.
For the compound `COc1ccccc1/C=N/Nc1cc(N2CCOCC2)nc(N2CCOCC2)n1` [CSV0A013031], the results for the activity at 0.01 µM in test [1] (setting [3]) and in test [2] (setting [3]) were 57 ± 1% and 74 ± 3%, respectively. Further, the activity at 1 µM in test [1] (setting [4]) is 33 ± 3%; in test [2] (setting [4]), 67 ± 6%.
The like results for `CCCN(CCC)c1cc(N/N=C/c2cc(Br)ccc2O)nc(N(CCC)CCC)n1` [CSV0A020330] were, in that order, 22 ± 3%, 27 ± 2%, 45 ± 7% and 45 ± 3%.
